Data set [1] deals with male, New Zealand white pasteurella-free rabbits. The data set is described as follows: Rabbit sleep (EEG) and body temperature after ICV injection. Type of data set: in vivo. The settings on record: for Colonic Temperature Start: at the time of injection; for Colonic Temperature End: end of 6-h recording session; for NREMS / REMS: six-hour recording period. From the text:
A lateral cerebral ventricular guide cannula, a thermistor, and stainless steel screw electroencephalographic (EEG) electrodes were surgically implanted into male, New Zealand white pasteurella-free rabbits (about 3.5 kg). EEG electrodes were placed over the frontal and parietal cortices A 50,000 ohm calibrated thermistor (Model 4018, Omega Engineering, Stamford, Conn.) was implanted over the parietal cortex to measure brain temperature (Tbr). Insulated leads from the screws and the thermistor were routed to an amphenol plug attached to the skull with dental acrylic (DUZ-ALL, Coralite Dental Products, Skokie, Ill.). The guide cannula was placed in the left lateral cerebral ventricle. A minimum of two weeks was allowed for recovery before the animals were habituated to the recording chambers (Hotpack 352600, Philadelphia, Pa.). Food and water were available ad libitum. Each recording chamber contained an electronic swivel (Stoelting, Chicago, Ill.) suspended by a shock-absorbing system. A flexible tether connected the swivel to the Amphenol connector on the rabbit's head, thus allowing freedom of movement. An accelerometer (Grass, SPAI, Quincy, Mass.) attached to the shock-absorbing system provided an indication of body movement. The cables from the swivel and the accelerometer were connected to Grass 7D polygraphs in an adjacent room. The polygraphs recorded EEG, Tbr, and body movement for each animal. The EEG for each rabbit was passed through band-pass filters with the 0.5-3.5 Hz (delta), 4.0-7.5 Hz (theta), 8.0-12.5 Hz (alpha), and 13.0-15.0 Hz (beta) frequency bands rectified and averaged for 1-min intervals by a Buxco model 24/32 data logger (Buxco Electronics, Sharon, Conn.). These values for 1-min periods were used to compute hourly averages. EEG amplitudes in the delta frequency band during 1-min epochs of NREMS for each of the six postinjection hours were also determined. The 10 samples of greatest magnitude in each hour were averaged for each rabbit during control and test NREM sleep periods. […] Tbr S were also recorded using a data logger (Acrosystems 400, Beverly, Mass.), with values for each rabbit sampled at 10-min intervals. NREM sleep and REM sleep were measured as a percent of time over a six-hour recording period. Colonic temperatures (Tco) were taken with a flexible thermistor (YSI, Inc., Yellow Springs, Ohio) at the time of injection and at the end of 6-h recording session. IL1 fragments were dissolved in appropriate volumes of artificial cerebrospinal fluid (aCSF) (2 mM KC1, 1.15 mM CaCl2, and 0.96 mM MgCl2 in pyrogen free saline, […] NaCl [Abbott, N. Chicago, Ill.] Hu-rIL1β was supplied in phosphate-buffered saline (PBS) (0.4 mg/ml). All substances were injected into a lateral cerebral ventricle (ICV). Injection volumes were 12-25 μl per rabbit; each injection lasted about 2 min. Animals were injected between 0900 and 1000 h. Control recordings were obtained from each animal after injection of vehicle (aCSF). After injections, animals were recorded from the next 6 h. Data from all experiments were analyzed with the SPSS^x Information System. Friedman's test for k-related samples was used to test for differences across the 6-h recording periods. If significant differences were indicated, the Wilcoxon matched-pairs signed-ranks test was used to identify the specific hours in which the differences occurred. An alpha level of P<0.05 was accepted as indicating significance.

The next data set deals with Murine D10 Cells. The data set is described as follows: T cell proliferation assay, [3H] thymidine incorporation in murine T cell line D10. In kind it is cell-based, mouse. As to the method:
Thymus glands were removed from 6-10 week old CD1 mice after mice had been sacrificed by cervical dislocation. Thymocytes were isolated by gently homogenizing the thymus glands in a dounce homogenizer. Thymocytes were suspended in RPMI 1640 containing 7.5% FCS and 5×10-^6 M 2-mercaptoethanol. Aliquots of the cell suspension (100 μl) were dispensed into wells of flat bottom microtiter plates (Linbro Plastics), and samples (50 μl) suspended in RPMI 1640 were added to appropriate wells. Plates were incubated at 37° C., 5% CO2, in a humidified atmosphere for 60 h, and wells were pulsed with [^3 H] thymidine (1 μCi, […]) for 12h. After the 12-h pulse, cells were harvested onto paper filter pads with a multiple-sample harvester, and thymocyte proliferation was determined by scintillation counting. In some experiments, the murine T cell line D10 was used instead of thymocytes as target cells using phytohemmagglutinin (1 μg/ml) as costimulant.
A general note: Incorporation of labelled thymidine or its analogues reports DNA synthesis.

Entries after “also recorded” stand apart in the source; their conditions may differ. Residues, ends and D or L forms follow the SMILES beside them.

In the case of “199-228: synthetic fragment of IL1β, amino acids 199-228 (ESVDPKNYPKKKMEKRFVFNKIEINNKLEF; UniProt P01584 199-228, looked up, fragment) [Peptide 199-228]”, in data set [1] (25 μg ICV), the “Colonic Temperature Start” value was 39.3 (0.1) °C, the “Colonic Temperature End” value was 39.4 (0.1) °C, the NREMS is 50.9 (3.9) percent of time and the REMS is listed as 20.0 (1.2) percent of time. Moreover, in data set [1] (ICV, doses of Table 3), the “somnogenic and pyrogenic activity: effect on sleep or Tbr (in words)” value is “failed to alter sleep or Tbr”. Further, the “T cell proliferation (in words)” value in the data set with Murine D10 Cells (murine D10 cells (Table 2)) is “stimulated T cell proliferation”. Further, the “[3H] Thymidine Incorporation, Murine D10 Cells” value in the data set on Murine D10 Cells (standard deviation in, phytohemmagglutinin 1 μg/ml as costimulant) is listed as 2799 (652) counts per minute.
Take `CC[C@H](C)[C@H](NC(=O)[C@H](CCC(=O)O)NC(=O)[C@@H](NC(=O)[C@H](CCCCN)NC(=O)[C@H](CC(N)=O)NC(=O)[C@H](Cc1ccccc1)NC(=O)[C@@H](NC(=O)[C@H](Cc1ccccc1)NC(=O)[C@H](CCCNC(=N)N)NC(=O)[C@H](CCCCN)NC(=O)[C@H](CCC(=O)O)NC(=O)[C@H](CCSC)NC(=O)[C@H](CCCCN)NC(=O)[C@H](CCCCN)NC(=O)[C@@H](N)CCCCN)C(C)C)[C@@H](C)CC)C(=O)N[C@@H](CC(N)=O)C(=O)N[C@@H](CC(N)=O)C(=O)N[C@@H](CCCCN)C(=O)N[C@@H](CC(C)C)C(=O)N[C@@H](CCC(=O)O)C(=O)N[C@@H](Cc1ccccc1)C(=O)N[C@@H](CCC(=O)O)C(=O)N[C@@H](CO)C(=O)N[C@@H](C)C(=O)N[C@@H](CCC(N)=O)C(=O)N[C@@H](Cc1ccccc1)C(=O)N1CCC[C@H]1C(=O)N[C@@H](CC(N)=O)C(=O)N[C@@H](Cc1c[nH]c2ccccc12)C(=O)N[C@@H](Cc1ccc(O)cc1)C(=O)N[C@H](C(=O)N[C@@H](CO)C(=O)N[C@H](C(=O)O)[C@@H](C)O)[C@@H](C)CC` [Peptide 208-240] (H-KKKMEKRFVFNKIEINNKLEFESAQFPNWYIST-OH): the “abnormal behavior after injection” value in data set [1] (25 μg ICV) is listed as “no appearance of abnormal behavior; also recorded: did not appear to induce abnormal behavior”.
With “IL1β: Recombinant human IL1β prepared by Cistron Biotechnology, Incorporated”, in data set [1] (5 ng ICV), the “Colonic Temperature Start” value is 39.2 (0.0) °C, the “Colonic Temperature End” value was 40.0 (0.1) °C, the NREMS is recorded as 53.3 (3.2) percent of time and the REMS is given as 4.4 (0.8) percent of time. In data set [1] (20 ng ICV), the “Colonic Temperature Start” value is 39.3 (0.1) °C, the “Colonic Temperature End” value was 41.0 (0.3) °C, the NREMS is 61.5 (4.3) percent of time and the REMS is recorded as 2.1 (0.6) percent of time.
